Assay results published in ChEMBL document CHEMBL1201862, “PubChem BioAssay data set” (2004).
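These data come from cells grown in 96-well plates and exposed to compound for 48 hours at five concentrations. The concentration for 50% growth inhibition is given as GI50.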 The source made the active and inactive calls. Cut-off read from the data, not from the text of the source: active = GI50 up to about 1.1 µM and inactive = higher.

How the values were obtained:
Assay in all cases: inhibition of tumour cell growth, NCI panel, 48 h
OVCAR-3 = test system: OVCAR-3
KM12 = test system: KM12
HOP-92 = test system: HOP-92
NCI/ADR-RES = test system: NCI/ADR-RES
RXF 393 = test system: RXF 393
HCC 2998 = test system: HCC 2998
CCRF-CEM = test system: CCRF-CEM
UO-31 = test system: UO-31
A498 = test system: A498
HCT-116 = test system: HCT-116
U-251 = test system: U-251
LOX IMVI = test system: LOX IMVI
786-0 = test system: 786-0
ACHN = test system: ACHN
MCF7 = test system: MCF7
M14 = test system: M14
SN12C = test system: SN12C
K562 = test system: K562
MOLT-4 = test system: MOLT-4
SF-539 = test system: SF-539

Measured: GI50

CCOC(=O)c1sc2nc(SC)nc3c2c1N=CN3c1ccccc1Cl
inactive: OVCAR-3 32.6 µM | KM12 > 100 µM | HOP-92 22.6 µM | NCI/ADR-RES > 100 µM | RXF 393 18.1 µM | HCC 2998 > 100 µM | CCRF-CEM 65.3 µM | UO-31 > 100 µM | A498 10.1 µM | HCT-116 40.9 µM | U-251 21.3 µM | LOX IMVI > 100 µM | 786-0 14.1 µM | ACHN 19.4 µM | MCF7 > 100 µM | M14 62.1 µM | SN12C > 100 µM | K562 72.3 µM | MOLT-4 61.7 µM

O=c1c2ccccc2sc2cccc(NCCCN3CCN(CCCNc4cccc5sc6ccccc6c(=O)c45)CC3)c12
inactive: SF-539 > 100 µM | OVCAR-3 > 100 µM | KM12 > 100 µM | NCI/ADR-RES > 100 µM | RXF 393 > 100 µM | HCC 2998 > 100 µM | CCRF-CEM > 100 µM | UO-31 > 100 µM | A498 > 100 µM | HCT-116 > 100 µM | U-251 > 100 µM | LOX IMVI > 100 µM | 786-0 > 100 µM | ACHN > 100 µM | MCF7 > 100 µM | M14 > 100 µM | SN12C > 100 µM | K562 > 100 µM | MOLT-4 > 100 µM

CC(=O)N1N=C(c2ccc3ccccc3c2O)CC1c1ccc(N(C)C)cc1 (stereo not given)
inactive: SF-539 > 100 µM | OVCAR-3 > 100 µM | KM12 > 100 µM | HOP-92 > 100 µM | NCI/ADR-RES > 100 µM | RXF 393 > 100 µM | HCC 2998 > 100 µM | CCRF-CEM > 100 µM | UO-31 > 100 µM | A498 > 100 µM | HCT-116 > 100 µM | U-251 > 100 µM | 786-0 > 100 µM | ACHN > 100 µM | MCF7 > 100 µM | M14 > 100 µM | SN12C > 100 µM | K562 > 100 µM | MOLT-4 > 100 µM

O=C1C(C(O)(C(F)(F)Cl)C(F)(F)Cl)CCC1C(O)(C(F)(F)Cl)C(F)(F)Cl (stereo not given)
inactive: SF-539 2.74 µM | OVCAR-3 7.28 µM | KM12 4.45 µM | HOP-92 2.09 µM | NCI/ADR-RES > 10 µM | RXF 393 5.05 µM | HCC 2998 3.42 µM | A498 3.85 µM | HCT-116 2.5 µM | U-251 4.4 µM | LOX IMVI 3.94 µM | 786-0 > 10 µM | ACHN 3.81 µM | MCF7 3.48 µM | M14 7.78 µM | SN12C 6.87 µM | K562 > 10 µM | MOLT-4 5.55 µM
